Results taken from publication PMC4198181, “Gold(I) Complexes of 9-Deazahypoxanthine as Selective Antitumor and Anti-Inflammatory Agents” (PLoS ONE, 2014).

Test system: human cancer cell lines (MCF7, HOS, A549, G361, HeLa, A2780, A2780R, 22Rv1)
Test: MTT in vitro cytotoxicity, summary over the panel of human cancer cell lines
Assay type: cell-based
Conditions: on the MCF7 and HOS cell lines
Method: In vitro cytotoxic activity was determined by the MTT assay in human breast adenocarcinoma (MCF7; ECACC no. 86012803), human osteosarcoma (HOS; ECACC no. 87070202), lung carcinoma (A549; ECACC no. 86012804), malignant melanoma (G361; ECACC no. 88030401), cervix epitheloid carcinoma (HeLa; ECACC no. 93021013), ovarian carcinoma (A2780; ECACC no. 93112519), cisplatin-resistant ovarian carcinoma (A2780R; ECACC no. 93112517) and prostate carcinoma (22Rv1; ECACC no 105092802) cancer cell lines, purchased from European Collection of Cell Cultures (ECACC). The cells were cultured according to the ECACC instructions and they were maintained at 37°C and 5% CO2 in a humidified incubator. The primary culture of human hepatocytes (HEP220, batch number HEP220819) was obtained from Biopredic International (France). The culture medium was Williams and HAM's F-12 (1∶1) supplemented with penicillin, streptomycin, ascorbic acid, linoleic acid, holo-transferin, ethanolamine, glucagon, insulin, dexamethasone, pyruvate, glucose, glutamine, amphotericin. The medium was enriched for plating with 2% foetal calf serum (v/v). The medium was exchanged for a serum-free medium the day after and the culture was stabilized for additional 24 h. Thereafter, the cells were ready for treatments. The cultures were maintained at 37°C and 5% CO2 in a humidified incubator. The cells were treated with complexes 1–5 (at the concentration levels of 0.01, 0.1, 1.0, 5.0, 25.0, and 50.0 µM), starting compounds e.g. HL1–5, AuCl, and cisplatin (applied up to 50 µM) for 24 h, using multi-well culture plates of 96 wells. […]
The cytotoxicity data were expressed as the percentage of viability, where 100% represented the treatments with vehicle (0.1% DMF or 0.1% DMSO). […] The IC50 values were calculated from viability curves. […] The significance of the differences between the results was assessed by the ANOVA analysis with p<0.05 considered to be significant (QC Expert 3.2, Statistical software, TriloByte Ltd., Pardubice, Czech Republic).

`CC(C)Oc1ncnc2cc[n]([Au])c12.c1ccc(P(c2ccccc2)c2ccccc2)cc1` [complex 2, [Au(L2)(PPh3)]] was tested, and the “times more efficient than cisplatin” value was “at least 20 times”.
